Test results: US7563792B2, “Biguanide and dihydrotriazine derivatives” (priority 2002, dated 2009)

Columns and labels:
Mycobacterium avium = test: In vitro MIC against Mycobacterium avium isolates, microtiter plate, turbidity; assay type: cell-based; conditions: 18 to 21 days
[1] = test system: Mycobacterium tuberculosis; test: In vitro MIC against Mycobacterium tuberculosis, microtiter plate, turbidity; assay type: cell-based; conditions: Mycobacterium tuberculosis strain Erdmann; 37° C., 18 to 21 days
Experimental: Antituberculosis activities were assessed in vitro using the biologically active dihydrotriazine metabolites of the imidodicarbonimidic diamides. The assay methodology is detailed as follows:
To tissue culture treated 96-well microtiter plates were added 20 μl of a solution of test compound. The plates were allowed to dry in an incubator at a temperature between 50° to 60° C. for 20 to 30 minutes. Then the plates were subjected to UV light for 15 minutes to kill bacteria. The plates were generally used within 2-3 days of being made. To each well was added 100 μl of culture broth and the appropriate strain of Mycobacterium tuberculosis or Mycobacterium avium. The plates were then incubated at 37° C. for between 18 days to 21 days. Growth was assessed by turbidity measurement and MICs reported in μg/ml.

[2] = test system: Plasmodium berghei (KBG strain); test: Mouse malaria model (modified Thomson model), percent survival; assay type: in vivo, CD-1 mice; conditions: twice a day for 3 days from day 3 post infection, orally or subcutaneously (route not stated), P. berghei infected mice
Experimental: Seven (7) mice are typically used in each experimental group. The mice are housed 3 to 4 per cage and are maintained at a temperature of […] with a 12-hour day light cycle. The mice are fed a standard Ralston Purina® mouse chow and given water ad. lib. Their cages and water bottles were changed twice a week.
Preparation of the test compounds oral administration involved grinding the material with a mortar and pestle before diluting in 0.5% hydroxyethylcellulose-Tween 80 (polyoxyethylene (20) sorbitan mono-oleate) for oral administration. For subcutaneous administration, the test compounds were suspended in peanut oil.
The mice were infected intraperitoneally with 50,000 red blood cells infected with a drug-sensitive strain of Plasmodium berghei (KBG strain) on day 0. The inoculum was obtained from a donor mouse having a parasitemia between 5% and 10%.
The compounds were administered according to the weight of the mice. The mice were weighed each day before the drugs were administered. Test compounds are given in a volume of 10 ml/kg of body weight. Compounds were administered either orally or subcutaneously twice a day (6 hours apart) for 3 days starting on the 3rd day post infection. Blood films were taken on day 6 post-infection and twice weekly for 30 days. The level of parasites (parasitemia) was determined from the Giemsa stained blood films.
Antimalarial activity was quantified by a percent survival calculated for each treated group on Day 31.

Row | Compound | MIC (Mycobacterium avium; Mycobacterium avium strain 101, 37° C.) [mg/L] | MIC (Mycobacterium avium; Mycobacterium avium strain 3404-4, 37° C.) [mg/L] | MIC (Mycobacterium avium; Mycobacterium avium strain Farino, 37° C.) [mg/L] | MIC (Mycobacterium avium; Mycobacterium avium strain LPR, 37° C.) [mg/L] | MIC [1] [mg/L] | % SURVIVAL AT DAY 31 ([2]; dose 4 mg/kg) [%] | % SURVIVAL AT DAY 31 ([2]; dose 8 mg/kg) [%] | % SURVIVAL AT DAY 31 ([2]; dose 16 mg/kg) [%] | % SURVIVAL AT DAY 31 ([2]; dose 32 mg/kg) [%] | % SURVIVAL AT DAY 31 ([2]; dose 64 mg/kg) [%]
1 | CC1(C)NC(=N)NC(=N)N1OCCCOc1ccc(OC(F)(F)F)cc1.Cl [Metabolite of Compound of Example 5, 6,6-Dimethyl-1-[3-(4-trifluoromethoxy-phenoxy)-propoxy][1,3,5]triazinane-2,4-diylidenediamine hydrochloride] | 3.1 | 0.6 ± 0.3 | 1 ± 0.85 | 37.5 ± 17.7 | 19 | – | – | – | – | –
2 | 1-(3-(4-trifluoromethoxyphenoxy)propyloxy)-5-isopropyl biguanide hemisuccinate [Compound of Example 5] | – | – | – | – | – | 0 | 14 | 86 | 100 | 100
3 | Cl.N=C(NOCCCOc1ccc(OC(F)(F)F)cc1)NC(=N)NC1CC1 [Compound of Example 6, 1-(3-(4-trifluoromethoxyphenoxy)propyloxy)-5-cyclopropylbiguanide hydrochloride] | – | – | – | – | – | 0 | 14 | 43 | 71 | 100
